From PubChem BioAssay AID1996 come the findings set out here.

The structures appear in SMILES notation. Converted amounts (≈) assume the structure as drawn.

For the data set the following is noted: buffer; pH 7.4; 200.0 µM.
The compound `O=C(NCCN1CCN(C(=O)c2cccc(OC(F)F)c2)CC1)c1cccc(OC(F)F)c1` returned a solubility (kinetic) of more than 70.4 µg/mL.

Consider `Cc1noc(C)c1C(=O)Nc1nc(-c2ccc(F)c(F)c2)cs1`, for which the kinetic solubility was 4.8 µg/mL (≈ 14.3 µM).

In turn, `O=C(O)c1cc(=O)c2ccccc2[nH]1` showed a solubility (kinetic) of more than 28.4 µg/mL.

Turning to `Cc1ccccc1C(=O)Nc1cccc(NC(=O)c2ccc(F)cc2)c1`, the solubility (kinetic) was 1.8 µg/mL (≈ 5.17 µM).

Compound `Cc1ccc(C(=O)NC(=S)Nc2ccc(CN3CCOCC3)cc2)cc1` gave a kinetic solubility of 2.7 µg/mL (≈ 7.31 µM).

In turn, `CC(C)c1ccc(C(=O)NCCCNC(=O)c2cnccn2)cc1` displayed a solubility (kinetic) of more than 49 µg/mL.

Compound `CC1=NCCN1CCNC(=O)Nc1ccc(F)cc1` came in with a solubility (kinetic) of more than 39.6 µg/mL.

Take `O=C(NC1CC1)c1nc(Cn2cc([N+](=O)[O-])cn2)no1`: the solubility (kinetic) was more than 41.7 µg/mL.

Take `O=C(NC1CCCc2ccccc21)c1ccc2c(c1)OCO2` (stereo unspecified): the kinetic solubility was found to be 11.6 µg/mL (≈ 39.3 µM).

Compound `COc1ccc(NC(=O)COc2ccc(C)cc2)c([N+](=O)[O-])c1` registered a kinetic solubility of less than 0.3 µg/mL.

Turning to `O=C(CN1CCN(c2ccccc2)CC1)Nc1ccncc1`, the kinetic solubility was determined as 38.6 µg/mL (≈ 130 µM).

`CCCN1C(=O)CC(=O)N=C1SCC(=O)Nc1ccccc1F` came in with a kinetic solubility of more than 50.6 µg/mL.

In turn, `COc1ccc(CNC(=O)C2CCN(S(C)(=O)=O)CC2)c(OC)c1` returned a kinetic solubility of more than 53.5 µg/mL.

Consider `CCOc1ccccc1NC(=O)c1cccc(NC(=O)C2CCCC2)c1`, for which the kinetic solubility was 13.4 µg/mL (≈ 38 µM).

Compound `Cc1cc2cccc(C)c2nc1SCC(=O)NC1CCCCC1` yielded a solubility (kinetic) of less than 0.4 µg/mL.

`Cc1ccc(C(=O)NCCNC(=O)Cc2ccccc2)cn1` registered a solubility (kinetic) of more than 44.6 µg/mL.

The compound `COc1ccc(/C=C2\SC(N)=NC2=O)cc1Cl` showed a kinetic solubility of 3.1 µg/mL (≈ 11.5 µM).

As to `CCOC(=O)/C(C#N)=C/Nc1ccccc1OC(F)(F)F`, the solubility (kinetic) was 1.2 µg/mL (≈ 4 µM).

The compound `COc1c(Cl)cc(C(=O)NCc2ccco2)cc1Cl` had a solubility (kinetic) of 40.2 µg/mL (≈ 134 µM). Compared with the last compound, the solubility kinetic is about 34-fold higher.

Compound `Cc1ccnc(NC(=O)COC(=O)c2ccc(F)cc2F)n1` displayed a solubility (kinetic) of more than 46.1 µg/mL.

Compound `O=C(NCCc1c[nH]c2ccccc12)c1ccc(Cl)cc1` returned a solubility (kinetic) of 5.2 µg/mL (≈ 17.4 µM).

In turn, `O=C(CNS(=O)(=O)c1ccc(F)c(Cl)c1)NCCc1ccccc1` registered a kinetic solubility of 5.1 µg/mL (≈ 13.8 µM).

The compound `CN(C)c1cc(-c2cccc([N+](=O)[O-])c2)oc(=O)c1Cl` showed a kinetic solubility of 1.3 µg/mL (≈ 4.41 µM).

In the case of `O=C(c1ccccc1Cl)N1CCn2c1nc1ccccc12`, the kinetic solubility was determined as 29.5 µg/mL (≈ 99.1 µM).

`COc1ccc(CNC(=O)C2CCN(S(C)(=O)=O)CC2)cc1` had a kinetic solubility of 45.2 µg/mL (≈ 138 µM). Compared with the last compound, the solubility kinetic is about 1.5-fold higher.

`CCNC(=O)NC(=O)C(C)OC(=O)c1ccc(SC)cc1OC` (stereo unspecified): the solubility (kinetic) is more than 51.1 µg/mL.

Regarding `O=CC1=C(N2CCOCC2)/C(=C\c2ccccc2)CC1`, the solubility (kinetic) was 32.2 µg/mL (≈ 120 µM).

For the compound `N#CC(C#N)=CNc1cccnc1`, the kinetic solubility was more than 25.5 µg/mL.

In turn, `Cc1cc(-c2ccccc2C(=O)NC2CCCCC2)on1` gave a kinetic solubility of 31.8 µg/mL (≈ 112 µM).

Turning to `Cc1nc(C)c(C(=O)OCC(=O)N(C)c2ccccc2)s1`, the kinetic solubility is more than 45.7 µg/mL.

For `CC1(c2ccccc2)NC(=O)N(CC(=O)N2CC(=O)Nc3ccccc32)C1=O` (stereo unspecified), the solubility (kinetic) is 23.2 µg/mL (≈ 61.3 µM).

Consider `CCOc1ncccc1C(=O)Nc1nc(SC)ns1`, for which the kinetic solubility was 7.8 µg/mL (≈ 26.3 µM).

`CC(=O)Nc1ccc(/C=C(\C#N)C(N)=O)cc1` showed a kinetic solubility of 16.8 µg/mL (≈ 73.3 µM).

On to `CC(C)n1cc(NC(=O)COc2ccccc2Cl)cn1`, for which the solubility (kinetic) was more than 44.1 µg/mL.

Consider `Cc1cccc(C(=O)OCC(=O)NCCCc2ccccc2)c1O`, for which the solubility (kinetic) came out at 12.3 µg/mL (≈ 37.6 µM).

`Cc1ccc2nc(SCC(=O)Nc3c(F)cccc3F)[nH]c2c1`: the solubility (kinetic) is 43.4 µg/mL (≈ 130 µM).

`O=C(COc1ccc(F)cc1)Nc1ccc2c(c1)OCCO2` displayed a kinetic solubility of 7.9 µg/mL (≈ 26 µM).

`Cc1ccccc1NC(=O)C1CC(=O)N(Cc2ccccc2)C1` (stereo unspecified) registered a kinetic solubility of more than 46.3 µg/mL.

As to `COc1ccc2oc(=O)c(C(=O)NC(C)c3ccccc3)cc2c1` (stereo unspecified), the solubility (kinetic) was less than 0.7 µg/mL.

With `CC(CNS(=O)(=O)c1ccc(Br)cc1)CN(C)C` (stereo unspecified), the solubility (kinetic) was more than 50.3 µg/mL.

On to `COC(=O)COc1ccc(S(=O)(=O)N2CCCCCC2)cc1`, for which the kinetic solubility was found to be 42.9 µg/mL (≈ 131 µM).
